Inconclusive results and toxic doses are left out.
Test system: BDF1 mice, P388 leukemia ip, median survival T/C
Assay: NCI In Vivo Anticancer Drug Screen. Data for tumor model P388 Leukemia (intraperitoneal) in B6D2F1 (BDF1) mice
Details: endpoint: median survival time, higher = longer survival
Procedure, shortened: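 Transplantable tumour in mice; compound vs vehicle dosing; survival scored; ratio of treated to control reported.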

[1] = dose: 25.0 mg/kg/injection, schedule: Q01DX009 (ip), vehicle: saline
[2] = dose: 25.0 mg/kg/injection, schedule: Q04DX003 (ip), vehicle: saline
[3] = dose: 50.0 mg/kg/injection, schedule: Q01DX009 (ip), vehicle: saline
[4] = dose: 50.0 mg/kg/injection, schedule: Q04DX003 (ip), vehicle: saline
[5] = dose: 100.0 mg/kg/injection, schedule: Q01DX009 (ip), vehicle: saline
[6] = dose: 100.0 mg/kg/injection, schedule: Q04DX003 (ip), vehicle: saline
[7] = dose: 100.0 mg/kg/injection, schedule: Q04DX003 (ip), vehicle: saline with Tween-80
[8] = dose: 200.0 mg/kg/injection, schedule: Q04DX003 (ip), vehicle: saline with Tween-80
[9] = dose: 400.0 mg/kg/injection, schedule: Q04DX003 (ip), vehicle: saline with Tween-80
[10] = dose: 50.0 mg/kg/injection, schedule: Q01DX009 (ip), vehicle: saline with Tween-80
[11] = dose: 100.0 mg/kg/injection, schedule: Q01DX009 (ip), vehicle: saline with Tween-80
[12] = dose: 200.0 mg/kg/injection, schedule: Q01DX009 (ip), vehicle: saline with Tween-80
[13] = dose: 200.0 mg/kg/injection, schedule: Q04DX003 (ip), vehicle: saline
[14] = dose: 400.0 mg/kg/injection, schedule: Q04DX003 (ip), vehicle: saline

SMILES: CCN(CC)CCCC(C)Nc1ncnc(N)c1[N+](=O)[O-] (stereo not drawn)
- T/C [1]: 120 % of control
- T/C [2]: 90 % of control
- T/C [3]: 120 % of control
- T/C [4]: 95 % of control
- T/C [5]: 90 % of control
- T/C [6]: 100 % of control

SMILES: CCCCCCCCCCCCCCC(F)C(=O)OC (stereo not drawn)
- T/C (dose: 25.0 mg/kg/injection, schedule: Q01DX009 (sc), vehicle: olive oil, sesame oil, peanut oil): 95 % of control
- T/C (dose: 50.0 mg/kg/injection, schedule: Q01DX009 (sc), vehicle: olive oil, sesame oil, peanut oil): 86 % of control
- T/C (dose: 50.0 mg/kg/injection, schedule: Q04DX003 (sc), vehicle: olive oil, sesame oil, peanut oil): 91 % of control
- T/C (dose: 100.0 mg/kg/injection, schedule: Q01DX009 (sc), vehicle: olive oil, sesame oil, peanut oil): 100 % of control
- T/C (dose: 100.0 mg/kg/injection, schedule: Q04DX003 (sc), vehicle: olive oil, sesame oil, peanut oil): 91 % of control

SMILES: COC(=O)C(Br)C(Br)c1ccc(-c2ccccc2)cc1 (stereo not drawn)
- T/C [7]: 92 % of control
- T/C [8]: 89 % of control
- T/C [9]: 104 % of control

SMILES: NC(Cc1ccccc1Cl)C(=O)O (stereo not drawn)
- T/C (dose: 12.5 mg/kg/injection, schedule: Q01DX009 (ip), vehicle: saline with Tween-80): 86 % of control
- T/C (dose: 25.0 mg/kg/injection, schedule: Q01DX009 (ip), vehicle: saline with Tween-80): 101 % of control
- T/C [1]: 122 % of control
- T/C [10]: 107 % of control
- T/C [3]: 116 % of control
- T/C [11]: 102 % of control
- T/C [12]: 94 % of control

SMILES: CC(C)CCNc1ccc(NCCC(C)C)cc1
- T/C (dose: 2.34 mg/kg/injection, schedule: Q01DX009 (ip), vehicle: alcohol): 100 % of control
- T/C (dose: 4.68 mg/kg/injection, schedule: Q01DX009 (ip), vehicle: alcohol): 100 % of control
- T/C (dose: 9.37 mg/kg/injection, schedule: Q01DX009 (ip), vehicle: alcohol): 112 % of control
- T/C (dose: 13.75 mg/kg/injection, schedule: Q04DX003 (ip), vehicle: alcohol): 109 % of control
- T/C (dose: 18.75 mg/kg/injection, schedule: Q01DX009 (ip), vehicle: alcohol): 122 % of control
- T/C (dose: 27.5 mg/kg/injection, schedule: Q04DX003 (ip), vehicle: alcohol): 109 % of control

SMILES: CCC(=O)OC(C)COc1ccc(C(C)(C)C)cc1 (stereo not drawn)
- T/C [11]: 110 % of control
- T/C [12]: 110 % of control
- T/C (dose: 400.0 mg/kg/injection, schedule: Q01DX009 (ip), vehicle: saline with Tween-80): 124 % of control

SMILES: C[n+]1cc2c3ccccc3c(N)cc2c2ccccc21
- T/C (dose: 3.12 mg/kg/injection, schedule: Q01DX009 (ip), vehicle: water): 157 % of control
- T/C (dose: 6.25 mg/kg/injection, schedule: Q01DX009 (ip), vehicle: water): 185 % of control
- T/C (dose: 6.25 mg/kg/injection, schedule: Q04DX003 (ip), vehicle: water): 102 % of control
- T/C (dose: 12.5 mg/kg/injection, schedule: Q04DX003 (ip), vehicle: water): 116 % of control
- T/C (dose: 25.0 mg/kg/injection, schedule: Q01DX009 (ip), vehicle: water): 91 % of control
- T/C (dose: 25.0 mg/kg/injection, schedule: Q04DX003 (ip), vehicle: water): 98 % of control
- T/C (dose: 100.0 mg/kg/injection, schedule: Q04DX003 (ip), vehicle: water): 154 % of control
- T/C (dose: 150.0 mg/kg/injection, schedule: Q04DX003 (ip), vehicle: water): 203 % of control

SMILES: CCN(CC)CCCC(C)NC(=O)c1ccc2c(c1)C(=O)c1ccccc1C2=O (stereo not drawn)
- T/C (dose: 50.0 mg/kg/injection, schedule: Q01DX005 (ip), vehicle: saline): 98 % of control
- T/C (dose: 100.0 mg/kg/injection, schedule: Q01DX005 (ip), vehicle: saline): 89 % of control

SMILES: CC1(C)N=C(N)N=C(N)N1c1ccc(CCc2ccc(S(=O)(=O)F)cc2)c(Cl)c1
- T/C (dose: 33.0 mg/kg/injection, schedule: Q04DX003 (ip), vehicle: saline sonified): 122 % of control
- T/C [11]: 159 % of control

SMILES: CCC(=O)c1cc(OC)cc(OC)c1
- T/C [6]: 115 % of control
- T/C [13]: 120 % of control
- T/C [14]: 120 % of control

SMILES: CN(CCCl)Cc1ccccc1
- T/C (dose: 0.04 mg/kg/injection, schedule: Q01DX009 (ip), vehicle: saline): 95 % of control
- T/C (dose: 0.07 mg/kg/injection, schedule: Q01DX009 (ip), vehicle: saline): 87 % of control
- T/C (dose: 22.0 mg/kg/injection, schedule: Q04DX003 (ip), vehicle: saline): 104 % of control
- T/C [2]: 109 % of control
- T/C (dose: 33.0 mg/kg/injection, schedule: Q01DX009 (ip), vehicle: saline sonified): 116 % of control
- T/C (dose: 35.0 mg/kg/injection, schedule: Q04DX003 (ip), vehicle: saline): 109 % of control
- T/C (dose: 50.0 mg/kg/injection, schedule: Q01DX009 (ip), vehicle: saline sonified): 120 % of control
- T/C [3]: 210 % of control
- T/C (dose: 75.0 mg/kg/injection, schedule: Q01DX009 (ip), vehicle: saline sonified): 195 % of control
- T/C [5]: 155 % of control
- T/C (dose: 150.0 mg/kg/injection, schedule: Q04DX003 (ip), vehicle: saline): 175 % of control

SMILES: C[C@]12CC[C@@H]3c4ccccc4CC[C@H]3[C@@H]1CC[C@@H]2O
- T/C [7]: 90 % of control
- T/C [8]: 90 % of control
- T/C [9]: 100 % of control

SMILES: O=C(COc1cc(Cl)c(Cl)cc1Cl)OCCN(CCOC(=O)COc1cc(Cl)c(Cl)cc1Cl)C(=O)COc1ccc(Cl)cc1
- T/C (dose: 100.0 mg/kg/injection, schedule: Q04DX003 (ip), vehicle: other): 100 % of control
- T/C (dose: 200.0 mg/kg/injection, schedule: Q04DX003 (ip), vehicle: other): 86 % of control
- T/C (dose: 400.0 mg/kg/injection, schedule: Q04DX003 (ip), vehicle: other): 100 % of control

SMILES: CCOC(=O)c1ccc(NS(=O)c2ccccc2)cc1 (stereo not drawn)
- T/C [10]: 100 % of control
- T/C [11]: 93 % of control
- T/C [12]: 111 % of control

SMILES: CCOC1C=CC(OC(C)=O)C(COC(C)=O)O1 (stereo not drawn)
- T/C (dose: 100.0 mg/kg/injection, schedule: Q01DX009 (ip), vehicle: Klucel (hydroxypropylcellulose) (HPC)): 90 % of control
- T/C (dose: 100.0 mg/kg/injection, schedule: Q04DX003 (ip), vehicle: Klucel (hydroxypropylcellulose) (HPC)): 100 % of control
- T/C (dose: 200.0 mg/kg/injection, schedule: Q01DX009 (ip), vehicle: Klucel (hydroxypropylcellulose) (HPC)): 86 % of control
- T/C (dose: 200.0 mg/kg/injection, schedule: Q04DX003 (ip), vehicle: Klucel (hydroxypropylcellulose) (HPC)): 104 % of control
- T/C (dose: 400.0 mg/kg/injection, schedule: Q01DX009 (ip), vehicle: Klucel (hydroxypropylcellulose) (HPC)): 100 % of control
- T/C (dose: 400.0 mg/kg/injection, schedule: Q04DX003 (ip), vehicle: Klucel (hydroxypropylcellulose) (HPC)): 100 % of control

SMILES: CCC(C)C(NC(=O)C(Cc1ccc(O)cc1)NC(=O)C(N)C(C)C)C(=O)NC(Cc1cnc[nH]1)C(=O)N1CCCC1C(=O)NC(Cc1ccccc1)C(=O)OC (stereo not drawn)
- T/C (dose: 50.0 mg/kg/injection, schedule: Q01DX005 (ip), vehicle: saline with Tween-80): 101 % of control
- T/C (dose: 100.0 mg/kg/injection, schedule: Q01DX005 (ip), vehicle: saline with Tween-80): 90 % of control
- T/C (dose: 200.0 mg/kg/injection, schedule: Q01DX005 (ip), vehicle: saline with Tween-80): 90 % of control

SMILES: O=C(COCc1ccccc1)OCc1ccccc1
- T/C [6]: 109 % of control
- T/C [13]: 104 % of control
- T/C [14]: 113 % of control

SMILES: O=C(CSc1ccccc1)NCc1cnccn1
- T/C [4]: 108 % of control
- T/C [6]: 92 % of control
- T/C [13]: 104 % of control
- T/C [14]: 100 % of control

SMILES: Cc1ncnc2c1CCC2
- T/C [10]: 97 % of control
- T/C [11]: 111 % of control
- T/C [7]: 109 % of control
- T/C [12]: 87 % of control
- T/C [8]: 95 % of control

SMILES: CC1(C)N=C(N)N=C(N)N1c1ccc(OCC(=O)N2CCOCC2)cc1
- T/C [1]: 113 % of control
- T/C [3]: 113 % of control

SMILES: COc1ccc2c(c1)CCC(=O)O2
- T/C (dose: 100.0 mg/kg/injection, schedule: Q04DX003 (ip), vehicle: saline sonified): 91 % of control
- T/C (dose: 200.0 mg/kg/injection, schedule: Q04DX003 (ip), vehicle: saline sonified): 95 % of control
- T/C (dose: 400.0 mg/kg/injection, schedule: Q04DX003 (ip), vehicle: saline sonified): 100 % of control

SMILES: C=CC1CN2CCC1CC2C(O)c1ccnc2ccccc12 (stereo not drawn)
- T/C (dose: 50.0 mg/kg/injection, schedule: Q04DX003 (ip), vehicle: saline with Tween-80): 102 % of control
- T/C [7]: 88 % of control
- T/C [8]: 107 % of control

SMILES: O=C(O)c1ccc(-c2ccc(C(=O)O)cc2I)c(I)c1
- T/C [10]: 100 % of control
- T/C [11]: 96 % of control
- T/C [7]: 100 % of control
- T/C [12]: 96 % of control
- T/C [8]: 100 % of control
- T/C [9]: 95 % of control

SMILES: N#Cc1ccc(CC(O)c2ccc(Cl)cc2)cc1 (stereo not drawn)
- T/C [10]: 108 % of control
- T/C [11]: 89 % of control
- T/C [12]: 96 % of control

Reference: PubChem BioAssay AID328 (DTP/NCI, 2004)
